No end group written: not given here. *: point of attachment. Palmitoyl = CCCCCCCCCCCCCCCC(=O)*
Experiments:
[1] = biological target: vinculin (UniProt P18206)
[2] = biological target: T1, vinculin (Homo sapiens, UniProt P18206); assay: Surface plasmon resonance, peptides injected over immobilised vinculin; type: binding; settings: SPR, CM5 chip, serial peptide injections at 1 mM; rank order
T1 sequence (P18206 1-1066 isoform P18206-2): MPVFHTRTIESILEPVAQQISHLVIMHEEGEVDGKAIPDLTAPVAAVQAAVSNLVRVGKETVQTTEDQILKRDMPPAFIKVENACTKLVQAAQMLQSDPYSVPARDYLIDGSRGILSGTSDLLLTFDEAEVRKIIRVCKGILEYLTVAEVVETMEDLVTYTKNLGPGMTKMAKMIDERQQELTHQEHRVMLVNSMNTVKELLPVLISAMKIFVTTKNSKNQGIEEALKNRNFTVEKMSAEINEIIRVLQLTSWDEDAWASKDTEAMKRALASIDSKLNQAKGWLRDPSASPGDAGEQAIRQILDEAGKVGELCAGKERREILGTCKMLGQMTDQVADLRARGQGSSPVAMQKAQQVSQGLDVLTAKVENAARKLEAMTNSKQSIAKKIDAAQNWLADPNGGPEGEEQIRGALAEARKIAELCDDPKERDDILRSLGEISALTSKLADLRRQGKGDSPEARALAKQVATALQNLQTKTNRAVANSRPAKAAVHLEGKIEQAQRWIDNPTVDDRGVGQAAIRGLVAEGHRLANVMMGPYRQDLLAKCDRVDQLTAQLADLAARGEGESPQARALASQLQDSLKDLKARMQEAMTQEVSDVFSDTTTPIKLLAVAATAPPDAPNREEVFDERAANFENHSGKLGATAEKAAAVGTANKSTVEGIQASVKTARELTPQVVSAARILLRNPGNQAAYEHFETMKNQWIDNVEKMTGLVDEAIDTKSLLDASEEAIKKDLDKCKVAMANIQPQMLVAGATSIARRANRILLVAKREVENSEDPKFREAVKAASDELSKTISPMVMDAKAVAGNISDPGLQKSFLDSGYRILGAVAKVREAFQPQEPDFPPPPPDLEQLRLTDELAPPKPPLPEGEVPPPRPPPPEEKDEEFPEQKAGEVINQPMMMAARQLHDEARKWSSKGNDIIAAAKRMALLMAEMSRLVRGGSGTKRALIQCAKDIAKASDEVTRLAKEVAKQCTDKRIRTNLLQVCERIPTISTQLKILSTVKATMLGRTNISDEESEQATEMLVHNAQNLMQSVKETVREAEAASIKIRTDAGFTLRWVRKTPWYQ
Description: The SPR experiments were performed using a Biacore T200 system (GE Healthcare), and Series S CM5 or SA chips with 4 flow cells each.
Lyophilized vinculin was dissolved in flow buffer to a concentration of 1 mg/ml and covalently coupled onto the carboxymethylated dextran matrix of CM5 sensor chips using standard amine coupling. The flow buffer contained 10 mM HEPES, 150 mM NaCl, 3 mM EDTA, 0.05% surfactant P20. The chip was activated with an injection of 70 μl of a mixture of 0.05 M EDC and 0.2 M NHS, followed by the injection of approximately 70 μl of 10 μg/ml vinculin in 10 mM sodium acetate, pH 5.0 in one flow cell to yield a response of 7200 RU. Remaining reactive groups in the channel were blocked with an injection of 100 μl ethanolamine. Binding experiments were performed by injecting peptides for 120 s at a flow rate of 20 μl/min, at a concentration of 1 mM in the flow buffer over the chip surface to monitor association kinetics, followed by buffer flow for 120 s to measure dissociation kinetics. Between experiments, the surface was regenerated by injecting a 60 second pulse of 10 mM glycine pH 2.

[3] = test system: resting platelets; assay: Platelet aggregation induced by peptide in resting washed platelets (activation); type: cell-based, human (healthy volunteers); settings: for Platelet activation, donor 14 06 13 / Platelet activation, donor 18 06 13 / Platelet activation, donor 22 08 13 DONOR1 / Platelet activation, donor 22 08 13 DONOR2: Fig S10 sheet; for Platelet activation, donor 14 06 13: replicate 14_06_13; for Platelet activation, donor 18 06 13: replicate 18_06_13; for Platelet activation, donor 22 08 13 DONOR1: replicate 22_08_13_DONOR1; for Platelet activation, donor 22 08 13 DONOR2: replicate 22_08_13_DONOR2
Outline: (§1)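 Washed human platelets (from ACD blood, PGE1-treated) were used at 3x10^5/μl in buffer A pH 7.4 with 1.8 mM CaCl2. Light-transmission aggregometry ran at 37°C with stirring at 1100 rpm. Peptide or buffer was added at 2 min, TRAP 6 min later, and aggregation was recorded for a further 7 min.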

[4] = test system: TRAP-activated platelets; assay: Inhibition of TRAP-induced platelet aggregation after pre-incubation with peptide; type: cell-based, human (healthy volunteers)
Outline: as §1

[5] = type: physicochemical
Description: Peptides were stored in powder form at -80°C. Prior to use, they were left at room temperature for one hour. They were then mixed with a specific volume of deionised water to bring them to a 1mM concentration and were then aliquoted and frozen at -80°C. They were thawed a single time before use and discarded after an experiment. Peptides which were not soluble in deionised water (pal-APTNEFYA, pal-LEEDDEEGE, pal-TNITYRGT and pal-KLLITIHDRKE) were dissolved in a 10% DMSO and 90% deionised water solution (leading to a final concentration of 0.2% DMSO when combined with platelets, see below). These peptides were further diluted during platelet aggregations.

[6] = biological target: Syntenin-1 (UniProt O00560)
Sequence of Syntenin-1 (O00560 whole entry): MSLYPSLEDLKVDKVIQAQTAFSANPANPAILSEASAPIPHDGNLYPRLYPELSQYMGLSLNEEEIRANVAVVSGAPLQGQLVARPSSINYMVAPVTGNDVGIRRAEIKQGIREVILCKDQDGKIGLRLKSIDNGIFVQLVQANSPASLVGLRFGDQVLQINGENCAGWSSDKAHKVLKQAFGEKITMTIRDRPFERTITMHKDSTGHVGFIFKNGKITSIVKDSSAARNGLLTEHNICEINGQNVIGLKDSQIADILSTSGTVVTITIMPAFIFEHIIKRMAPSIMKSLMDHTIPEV

## tat-ACTN1_VBS (peptide)
[1]
  Activation: platelet aggregation induced in resting platelets after 6 minutes incubation with peptides (50μM): 66

## ACTN1_VBS-tat: ACTN1 vinculin-binding peptide with the tat peptide at the C-terminus (WEQLLTTIARTINEVENQIGRKKRRQRRRPPQ)
[2]
  Relative binding affinity to immobilised vinculin: tat-ACTN1_VBS > TLN1_VBS-tat > ACTN1_VBS-tat > ACTN1_VBS
[3]; peptide 50 µM, unit assumed
  Platelet activation, donor 14 06 13: 45%
  Platelet activation, donor 18 06 13: 11%
  Platelet activation, donor 22 08 13 DONOR1: 32%
  Platelet activation, donor 22 08 13 DONOR2: 4%
[3]; S10 Fig, peptide 50 µM, in words
  Platelet activating effect compared with N-terminal tat attachment: weaker platelet activating effect

## pal-TNITYRGT [pal-ITGB3_tail, N-terminally palmitylated ITGB3 tail peptide]
[4]; platelet aggregation induced by 4 μM TRAP in platelets pre-incubated with peptide (low value = inhibition), pal-peptides 20 μM, tat-peptides 50 μM, mean, n>=3
  Platelet aggregation remaining after TRAP (low = inhibition): 71
[4]; replicate donor d, TRAP 4 μM, pal 20 μM, tat 50 μM
  Aggregation after TRAP activation, donor d: 74
[4]; replicate donor f, TRAP 4 μM, pal 20 μM, tat 50 μM
  Aggregation after TRAP activation, donor f: 77
[4]; replicate donor g, TRAP 4 μM, pal 20 μM, tat 50 μM
  Aggregation after TRAP activation, donor g: 63
[5]
  Solubility in deionised water: not soluble
[3]; platelet aggregation in resting platelets after 6 minutes incubation with peptide, pal-peptides 20 μM, tat-peptides 50 μM, optical density, aggregometer, mean, n>=3, unit assumed
  Activation: 3%
[3]; replicate donor d, pal 20 μM, tat 50 μM
  Aggregation before TRAP activation, donor d: 2
[3]; replicate donor f, pal 20 μM, tat 50 μM
  Aggregation before TRAP activation, donor f: 5
[3]; replicate donor g, pal 20 μM, tat 50 μM
  Aggregation before TRAP activation, donor g: 3

## ACTN1_VBS: ACTN1_VBS peptide lacking the tat (WEQLLTTIARTINEVENQI)
[2]
  Relative binding affinity to immobilised vinculin: tat-ACTN1_VBS > TLN1_VBS-tat > ACTN1_VBS-tat > ACTN1_VBS
[3]; peptide 50 µM, unit assumed
  Platelet activation, donor 14 06 13: 35%
  Platelet activation, donor 18 06 13: 11%
  Platelet activation, donor 22 08 13 DONOR1: 7%
  Platelet activation, donor 22 08 13 DONOR2: 11%

## Palmitoyl-APTNEFYA [pal-SDC4_tail]
[6]
  Inhibition: platelet aggregation induced by 4μM TRAP in platelets pre-incubated with peptide (20μM): 34

— publication PMC6349357, “Computational and experimental analysis of bioactive peptide linear motifs in the integrin adhesome” (PLoS ONE, 2019)
